Reference: US10076519B2 (CYTOKINETICS, INC., priority 2010, dated 2018)

System: rabbit skeletal myofibrils (fast skeletal myofibrils)
Assay: Activation of fast skeletal myofibrils (PUMA assay, PK/LDH-coupled ATPase at pCa25)
Assay type: biochemical
Conditions: AC1.4 determined according to the procedure of Example 39; reported as class symbols
How it was run: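 Detergent-washed rabbit psoas myofibrils (~90% fast fibres, calcium-regulated) assayed at calcium giving 25% of maximal ATPase rate (pCa25). ADP turnover coupled via pyruvate kinase/lactate dehydrogenase to NADH oxidation, read at 340 nm. Buffer 12 mM PIPES, 2 mM MgCl2, 1 mM DTT, pH 6.8; AC1.4 values derived.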

| Mean AC1.4 | SMILES |
| --- | --- |
| C (C=10-20 uM) | CC(=O)NCc1ccc(-c2ccc(NCC(C)(C)c3ccc(F)cc3)nn2)cn1 [N-{[5-(6-{[2-(4-fluorophenyl)-2-methylpropyl]amino}pyridazin-3-yl)-2-pyridyl]methyl}acetamide] |
| B (B=1-10 uM) | CC(C)(CNc1ccc(-c2cccnc2)nn1)c1ccccc1Cl [[2-(2-chlorophenyl)-2-methylpropyl](6-(3-pyridyl)pyridazin-3-yl)amine] |
| B (B=1-10 uM) | CC(C)(CNc1ccc(-c2cncnc2)nn1)c1ccccc1Cl [[2-(2-chlorophenyl)-2-methylpropyl](6-pyrimidin-5-ylpyridazin-3-yl)amine] |
| B (B=1-10 uM) | CC(C)(CNc1ccc(-c2ccccn2)nn1)c1ccc(F)cc1 [[2-(4-fluorophenyl)-2-methylpropyl](6-(2-pyridyl)pyridazin-3-yl)amine] |
| B (B=1-10 uM) | CC(C)(CNc1ccc(-c2cccnc2)nn1)c1ccc(F)cc1 [[2-(4-fluorophenyl)-2-methylpropyl](6-(3-pyridyl)pyridazin-3-yl)amine] |
| A (A=<1 uM) | CC(C)(CNc1ccc(-c2ccccc2)nn1)c1ccc(F)cc1 [[2-(4-fluorophenyl)-2-methylpropyl](6-phenylpyridazin-3-yl)amine] |
| B (B=1-10 uM) | CC(C)(CNc1ccc(-c2cc[nH]n2)nn1)c1ccc(F)cc1 [[2-(4-fluorophenyl)-2-methylpropyl](6-pyrazol-3-ylpyridazin-3-yl)amine] |
| B (B=1-10 uM) | CC(C)(CNc1ccc(-c2cn[nH]c2)nn1)c1ccc(F)cc1 [[2-(4-fluorophenyl)-2-methylpropyl](6-pyrazol-4-ylpyridazin-3-yl)amine] |
| B (B=1-10 uM) | CC(C)(CNc1ccc(-c2cnc3[nH]ncc3c2)nn1)c1ccc(F)cc1 [[2-(4-fluorophenyl)-2-methylpropyl](6-pyrazolo[5,4-b]pyridin-5-ylpyridazin-3-yl)amine] |
| A (A=<1 uM) | CC(C)(CNc1ccc(-c2cnc3cc[nH]c3c2)nn1)c1ccc(F)cc1 [[2-(4-fluorophenyl)-2-methylpropyl](6-pyrrolo[3,2-b]pyridin-6-ylpyridazin-3-yl)amine] |
| A (A=<1 uM) | CC(C)(CNc1ccc(-c2ccc3[nH]nc(NCC(F)(F)F)c3c2)nn1)c1ccc(F)cc1 [[2-(4-fluorophenyl)-2-methylpropyl](6-{3-[(2,2,2-trifluoroethyl)amino](1H-indazol-5-yl)}pyridazin-3-yl)amine] |
| A (A=<1 uM) | CC(C)Nc1n[nH]c2ccc(-c3ccc(NCC(C)(C)c4ccc(F)cc4)nn3)cc12 [[2-(4-fluorophenyl)-2-methylpropyl](6-{3-[(methylethyl)amino](1H-indazol-5-yl)}pyridazin-3-yl)amine] |
| B (B=1-10 uM) | Cn1ncc2ccc(-c3ccc(NCC(C)(C)c4ccc(F)cc4)nn3)cc21 [[2-(4-fluorophenyl)-2-methylpropyl][6-(1-methyl(1H-indazol-6-yl))pyridazin-3-yl]amine] |
| A (A=<1 uM) | CC(C)(CNc1ccc(-c2ccccc2F)nn1)c1ccc(F)cc1 [[2-(4-fluorophenyl)-2-methylpropyl][6-(2-fluorophenyl)pyridazin-3-yl]amine] |
| A (A=<1 uM) | COc1ncccc1-c1ccc(NCC(C)(C)c2ccc(F)cc2)nn1 [[2-(4-fluorophenyl)-2-methylpropyl][6-(2-methoxy(3-pyridyl))pyridazin-3-yl]amine] |
| C (C=10-20 uM) | COc1ncc(-c2ccc(NCC(C)(C)c3ccc(F)cc3)nn2)cn1 [[2-(4-fluorophenyl)-2-methylpropyl][6-(2-methoxypyrimidin-5-yl)pyridazin-3-yl]amine] |
| B (B=1-10 uM) | Cc1nc2cc(-c3ccc(NCC(C)(C)c4ccc(F)cc4)nn3)ccc2[nH]1 [[2-(4-fluorophenyl)-2-methylpropyl][6-(2-methylbenzimidazol-5-yl)pyridazin-3-yl]amine] |
| B (B=1-10 uM) | Cc1nc2cc(-c3ccc(NCC(C)(C)c4ccc(F)cc4)nn3)ccc2o1 [[2-(4-fluorophenyl)-2-methylpropyl][6-(2-methylbenzoxazol-5-yl)pyridazin-3-yl]amine] |
| B (B=1-10 uM) | Cc1nc2ccc(-c3ccc(NCC(C)(C)c4ccc(F)cc4)nn3)cc2o1 [[2-(4-fluorophenyl)-2-methylpropyl][6-(2-methylbenzoxazol-6-yl)pyridazin-3-yl]amine] |
| B (B=1-10 uM) | CC(C)=Cc1ccc(NCC(C)(C)c2ccc(F)cc2)nn1 [[2-(4-fluorophenyl)-2-methylpropyl][6-(2-methylprop-1-enyl)pyridazin-3-yl]amine] |
| B (B=1-10 uM) | CC(C)Cc1ccc(NCC(C)(C)c2ccc(F)cc2)nn1 [[2-(4-fluorophenyl)-2-methylpropyl][6-(2-methylpropyl)pyridazin-3-yl]amine] |
| A (A=<1 uM) | CC(C)(CNc1ccc(-c2cccc(F)c2)nn1)c1ccc(F)cc1 [[2-(4-fluorophenyl)-2-methylpropyl][6-(3-fluorophenyl)pyridazin-3-yl]amine] |
| B (B=1-10 uM) | CC(C)(CNc1ccc(-c2ccc3[nH]nc(I)c3c2)nn1)c1ccc(F)cc1 [[2-(4-fluorophenyl)-2-methylpropyl][6-(3-iodo(1H-indazol-5-yl))pyridazin-3-yl]amine] |
| B (B=1-10 uM) | Cc1n[nH]c2cc(-c3ccc(NCC(C)(C)c4ccc(F)cc4)nn3)ccc12 [[2-(4-fluorophenyl)-2-methylpropyl][6-(3-methyl(1H-indazol-6-yl))pyridazin-3-yl]amine] |
| A (A=<1 uM) | C=Cc1n[nH]c2ccc(-c3ccc(NCC(C)(C)c4ccc(F)cc4)nn3)cc12 [[2-(4-fluorophenyl)-2-methylpropyl][6-(3-vinyl(1H-indazol-5-yl))pyridazin-3-yl]amine] |

| SMILES | Mean AC1.4 |
| --- | --- |
| CC(C)(CNc1ccc(C2=CCNCC2)nn1)c1ccc(F)cc1 [[2-(4-fluorophenyl)-2-methylpropyl](6-(4-1,2,5,6-tetrahydropyridyl)pyridazin-3-yl)amine] | B (B=1-10 uM) |

Same assay, conditions: median AC1.4 class, procedure of Example 39

| Mean AC1.4 | SMILES |
| --- | --- |
| C (C=10-20 uM) | CC(=O)Nc1nccc(-c2ccc(NCC3(c4ncccc4F)CCC3)nn2)n1 [N-{4-[6-({[(3-fluoro-2-pyridyl)cyclobutyl]methyl}ami-no)pyridazin-3-yl]pyrimidin-2-yl}acetamide] |

Same assay, conditions: median AC1.4 reported as class; procedure of Example 39

| Mean AC1.4 | SMILES |
| --- | --- |
| A (A=<1 uM) | CNC(=O)Nc1ccc(-c2ccc(NC[C@]3(c4ncccc4F)C[C@H](F)C3)nn2)c(F)c1 [N-{3-fluoro-4-[6-({[3-fluoro-1-(3-fluoro(2-pyridyl))cyclobutyl]methyl}ami-no)pyridazin-3-yl]phenyl}(methylamino)carbox-amide] |
| A (A=<1 uM) | CNC(=O)Nc1ccc(-c2ccc(NC[C@]3(c4ncccc4F)C[C@H](F)C3)nn2)cc1 [N-{4-[6-({[3-fluoro-1-(3-fluoro(2-pyridyl))cyclobutyl]methyl}ami-no)pyridazin-3-yl]phenyl}(methylamino)carbox-amide] |
| D (D=>20 uM) | CNC(=O)N(C)c1ccc(-c2ccc(NC[C@]3(c4ncccc4F)C[C@H](F)C3)nn2)cc1 [N-{4-[6-({[3-fluoro-1-(3-fluoro(2-pyridyl))cyclobutyl]methyl}ami-no)pyridazin-3-yl]phenyl}-N-methyl(methylamino)carboxamide] |
